From US12036022B2, “Transcutaneous organ function measurement” (MediBeacon Inc., priority 2008, dated 2024)

Assay: Half-life (renal excretion) after intravenous administration to rats
Conditions: rat, in vivo
Procedure: The chromatographically separated fractions F5 and F10 were derivatized with fluorescein isothiocyanate (FITC) to form FITC-F5 and FITC-F10. FITC-F10 was administered to rats intravenously. The interstitial fluorescence of the FITC measured at an excitation wavelength of 485-520 nm was determined. The fluorescence in the serum was measured as a control.

sinistrin
half-life: 25.02 ± 1.67 min
